Data on 21 compounds can be found in publication PMC3126777, “Selective anticancer activity of a hexapeptide with sequence homology to a non-kinase domain of Cyclin Dependent Kinase 4” (Molecular Cancer, 2011).

Entries after “also recorded” stand apart in the source; their conditions may differ. Like-named read-outs stand apart in the source and are kept apart here. Where only a bound is given, the exact number is not on record here.

The test system of series [1] is NCI-H460 cells. Nature of the series: Total cellular protein (sulphorhodamine B assay). The settings on record: H460, chloroquine, 96 hours after initial exposure (Figure 7B). In kind it is cell-based, human. The procedure: Control medium/alamar blue were removed and 200 μl PBS was added. […] Wells were rinsed with water and allowed to air dry. Cells were then stained in 0.4% SRB solution, before rinsing with 1% acetic acid and air drying. Incorporated dye was solubilised in 10 mM Tris and absorbance measured at 565 nm and 690 nm. Absorbance measurements at 690 nm were subtracted from the 565 nm readings to correct for multi-well plate absorbance.

The subject of a further series is H460 cells. The series can be described thus: Autophagy Assay (Cyto-ID Green, flow cytometry). In kind it is cell-based, human. The conditions noted are these: H460, 25 μM, positive control, 72 h and 96 h. The procedure:
Autophagy Assay was performed as recommended by the manufacturers' instructions (Enzo ENZ-51031-[…]). Briefly, H460 cells were seeded into 6 well plates at 2.5 × 10^5 and 1 × 10^5 cells/well. Immediately after cell plating, chloroquine or […] were added at the concentrations indicated. Following compound treatment, cells were washed once in PBS and resuspended in x1 Cyto-ID Green autophagy detection reagent and incubated at room temperature for 30 min. Immediately prior to analysis, propidium iodide (PI) solution was added to the cell suspension at a final concentration of 2.5 μg/ml, to assess cell death. Analysis was carried out using FACSCalibur (BD Biosciences). Cyto-ID Green autophagy reagent was measured in the FL-1 channel (530/30 nm bandpass filters with excitation at 488 nm) and PI measured in the FL-3 channel (670 nm longpass filters with excitation at 488 nm).
On the technique in general: A flow cytometer gives signals particle by particle.

In series [2] the test system is NCI-H460 cells. The series can be described thus: Cellular ATP levels (CellTiter-Glo assay). The series is classed as cell-based, human. The conditions noted are these: H460, chloroquine, 96 hours after initial exposure (Figure 7B). The procedure: Cellular ATP levels (CellTiter-Glo assay) Cells were grown, seeded and compound-treated as for the alamar Blue assay. A volume of the CellTiter-Glo reagent equal to the volume of cell culture media was added to the cells. Plates were mixed for 2 min on an orbital shaker to induce cell lysis before the plate was incubated at room temperature for 10 min to stabilize the signal. The luminescent signal was measured and the media only background was subtracted.
For orientation: In ATP-based viability assays light output follows the ATP content of the culture.

Series [3] relates to NCI-H460 cells. Nature of the series: Mitochondrial function (alamar blue). In kind it is cell-based, human. The conditions noted are these: H460, chloroquine, 96 hours after initial exposure (Figure 7B). The procedure:
Mitochondrial function (alamar blue) NCI-H460 cells were grown in Ham's F12 media supplemented with 10% FCS. Cells were harvested and added to 96-well plates at densities of 250-1000. Compounds were made up from stock solutions and added directly to cells at the concentrations indicated. Cells were grown with compound for the indicated time at 37°C, 5% CO2, in a humidified atmosphere. Alamar Blue 10% (v/v) was then added and incubated for a further 4 h, and fluorescent product detected using the BMG FLUOstar plate reader. The media only background was subtracted and the data analysed as appropriate.

For series [4], the system named is Cdk1 and Cdk4 expression in RT112 cells. The series can be described thus: Western blotting of Cdk1 and Cdk4 expression, RT112. The series is classed as cell-based, human. The conditions noted are these: RT112, 5 mM linear end-capped peptide, 0 - 10 days, Western blot. An excerpt:
This co-expression is unaffected by cytocidal doses of cisdiamminedichloroplatinum but can accompany spontaneous cancer cell death. Whether or not Cdk1/Cdk4 co-expression remained constant in cancer cells dying as a result of exposure to PRGPRP was thus examined by Western blotting.
(§1) All cell lines were from certified sources.
(A western blot detects proteins with antibodies after separation by electrophoresis.)

The test system of series [5] is RT112 human bladder cancer cells. The series can be described thus: In-vitro morphological cell viability screen, RT112. The series is classed as cell-based. The conditions noted are these: for Cell Viability Human Bladder Cancer: RT112, dose 5.0 mM, Ham's F12 + 10% FCS, morphological appearance.
Description: (§2) A broad search for possible biological activity associated with the [sequence] peptide sequence was initially instituted by screening human bladder cancer cell lines for potential in-vitro morphological changes, compared to control cultures of normal diploid human fibroblasts at 4-8 passages from primary culture as controls. […] The peptides were dissolved, over a range of concentrations, in Ham's F12 + 10% FCS and introduced in 100 μL quantities to microwells containing 500 RT112 bladder cancer cells, or normal diploid human fibroblasts, in 200 μL of Ham's F12 + 10% FCS plated 24 hours earlier on 96 well plates.
Series [6] relates to normal diploid human fibroblasts. Nature of the series: In-vitro morphological cell viability screen, normal fibroblasts. The settings on record: for effect on normal diploid fibroblasts (in words): 5 mM. In kind it is cell-based.
Description: as §2
Series [7] relates to H460 Human Non-small Cell Lung Cancer.
Series [8] concerns H460 human non-small cell lung cancer cells. The series can be described thus: Necrosis assay by Trypan Blue exclusion, H460. The series is classed as cell-based. The conditions noted are these: H460, 200 μM, 2, 3, 4 and 7 days after plating, triplicate wells. The procedure: Necrosis Assay Cells were plated in triplicate in 96 well plates at concentrations of 500 cells per well (HT1299, MCF-7) or 1000 cells per well (H460, MRC5-hTERT) in the presence or absence of the relevant compound and assessed by Trypan Blue exclusion At 2,3,4 and 7 days after plating. To assay, cells were trypsinised off, stained with trypan blue in isotonic medium and live and dead cells separately counted visually by haemocytomter. Each data point is the mean of results from triplicate wells (Solid lines - Live cells, Broken lines - Dead Cells; Blue - Control, Red - THR53 200 μM).

Series [9] concerns RT112 human bladder cancer and H460 human non-small lung cancer cell lines. Nature of the series: Cell killing by cyclic amphiphilic peptides (viability and clonogenic survival). The series is classed as cell-based. The conditions noted are these: for improvement in selective cancer cell cytotoxicity: cyclic amphiphilic cassettes compared with the earlier PRGPRP peptides; for time at which cell killing reached a maximum: for the majority of cell lines.
Description: Attempts to limit proteolysis and improve cell uptake, by incorporating the hexameric peptide sequence into cyclic peptide cassettes were undertaken, initially without success (Table 3,X-XIII). Linear constructs attaching PRGPRP to a known cell-internalising amphiphilic sequence were also unsuccessful (Table 3,XIV and 3XV). […] Selective toxicity to these cancer cell lines, and not normal fibroblasts, was retained (Table 4).
as §1

Setting [10] is: dose 5.0 mM, Ham's F12 + 10% FCS, morphological appearance.

Take `CCN(CC)CCCC(C)Nc1ccnc2cc(Cl)ccc12` (centres unmarked) [Chloroquine, reference compound]: the total cellular protein result in the series on NCI-H460 cells [1] was “ubiquitous effect”. Also, the “autophagy, Cyto-ID Green FL-1 peak” value in the series with H460 cells is given as “increase in autophagy”. In addition, in the series with NCI-H460 cells [2], the ATP levels result is given as “ubiquitous effect”. In addition, the mitochondrial oxidation/reduction result in the series on NCI-H460 cells [3] is on record as “ubiquitous effect”.
For the compound “Ac-PRGPRP-NH2 [THR1, linear N'-capped PRGPRP-amide hexapeptide]”, the “Cdk1 expression compared to Cdk4” value in [4] is “progressive rise”. Further, in [5] (5 mM), the “toxicity to RT112 human bladder cancer cells (in words)” value (“toxicity … (in words)” for short) is on record as “greater selective toxicity; also recorded: complete necrosis”. The “Cell Viability Human Bladder Cancer” value in [5] is “- - -”. Moreover, in series [6], the “effect on normal diploid fibroblasts (in words)” value is “stimulates normal fibroblast growth; also recorded: increases the confluent cell density”. Moreover, the “Cell Viability Normal Diploid Fibroblasts” value in series [6] (setting [10]) was “+ + + + +”.
“Cyc-GGGGGGPRGPRPGGGGGG] (head to tail) [XII]”: the “Cell Viability Normal Diploid Fibroblasts” value in series [6] (dose 200 μM) is on record as “+ + +”. In addition, in [7] (H460, dose 200 μM), the “Cell Viability Human Non-small Cell Lung Cancer” value is “+ + +”.
In the case of “Cyc-[AAAGGGPRGPRPGGGAAA] (head to tail) [X]”, the “Cell Viability Normal Diploid Fibroblasts” value in [6] (dose 200 μM) is given as “+ + +”. In [7] (H460, dose 200 μM), the “Cell Viability Human Non-small Cell Lung Cancer” value is given as “+ + +”.
“Cyc-[AAGPGGPRGPRPGGPGAA] (head to tail) [XIII]”: in series [6] (dose 200 μM), the “Cell Viability Normal Diploid Fibroblasts” value is “+ + +”. In addition, the “Cell Viability Human Non-small Cell Lung Cancer” value in series [7] (H460, dose 200 μM) is reported as “+ + +”.
Take “Cyc-[FPPRRPGPVKLALKLALK] (head to tail) [THR53C, PRRPGP in cyclic amphiphilic cassette, Cyc-[…]]”: in [6] (dose 200 μM), the “Cell Viability Normal Diploid Fibroblasts” value was “+ + +”. For the same compound, in series [7] (H460, dose 200 μM), the “Cell Viability Human Non-small Cell Lung Cancer” value was “+ + +”. The “necrosis detected by trypan blue uptake” value in series [8] is given as “not with THR53C”.
As for “Cyc-[GGGGGGPRGPRPGGGGGG] (head to tail) [XI]”, the “Cell Viability Normal Diploid Fibroblasts” value in series [6] (dose 200 μM) is given as “+ + +”. Further, in series [7] (H460, dose 200 μM), the “Cell Viability Human Non-small Cell Lung Cancer” value was “+ + +”.
For the compound “Cyc-[PR(Me)GPRPVALKLALKLAL] (head to tail) [XX]”, the “Cell Viability Human Non-small Cell Lung Cancer” value in series [7] (H460, dose 200 μM) is given as “+ +/-”.
Consider “Cyc-[PRGPR(Me)PVALKLALKLAL] (head to tail) [XXI]”, for which, in [7] (H460, dose 200 μM), the “Cell Viability Human Non-small Cell Lung Cancer” value is given as “++ +”.
For “Cyc-[PRGPRPVALKLALKLAL] (head to tail) [THR54]”, the “Cell Viability Normal Diploid Fibroblasts” value in series [6] (dose 100 μM) is “+ + +”. Further, in series [9], the “improvement in selective cancer cell cytotoxicity” value is recorded as “fifty- to a hundred-fold improvement” and the “time at which cell killing reached a maximum” value is ≤ 4 days. For the same compound, the “Cell Viability Human Non-small Cell Lung Cancer” value in series [7] (H460, dose 100 μM) is “_ _ _”.
As for “Cyc-[PRGPRPvalklalklal] (head to tail) [THR79]”, in [6] (dose 50 μM), the “Cell Viability Normal Diploid Fibroblasts” value is “+ + +”. In series [9], the “improvement in selective cancer cell cytotoxicity” value is reported as “fifty- to a hundred-fold improvement” and the “time at which cell killing reached a maximum” value is listed as ≤ 4 days. Besides, the “Cell Viability Human Non-small Cell Lung Cancer” value in series [7] (H460, dose 50 μM) is reported as “_ _ _”.
Consider FPPRGPRPVQ [I], for which, in series [5] (1.0 mM), the “toxicity … (in words)” value was “selectively toxic”. Moreover, the “effect on normal fibroblasts (in words)” value in [6] (1.0 mM) was “partial sparing”. In addition, the “Cell Viability Normal Diploid Fibroblasts” value in [6] (dose 1.0 mM, Ham's F12 + 10% FCS, morphological appearance) is “+ +/-”.
On to Linear FPPRGPRPVKLALKLALK [XIV], for which the “Cell Viability Normal Diploid Fibroblasts” value in series [6] (dose 200 μM) was “+ + +”. In series [7] (H460, dose 200 μM), the “Cell Viability Human Non-small Cell Lung Cancer” value is reported as “+ + +”.
For Linear PRGPRPVALKLALKLAL [XV], the “Cell Viability Normal Diploid Fibroblasts” value in series [6] (dose 200 μM) was “+ + +”. For the same compound, in series [7] (H460, dose 200 μM), the “Cell Viability Human Non-small Cell Lung Cancer” value is “+ + +”.
With “PEGPEP [IX, hexapeptide with both arginines substituted by glutamic acid]”, in series [5], the “Cell Viability Human Bladder Cancer” value is listed as “+ + +”. Further, the “Cell Viability Normal Diploid Fibroblasts” value in [6] (setting [10]) is listed as “+ + +”.
For “PEGPRP [VII, hexapeptide with arginine substituted by glutamic acid]”, in series [5] (5 mM), the “toxicity … (in words)” value is listed as “lacked cytotoxic activity”. The “Cell Viability Human Bladder Cancer” value in series [5] is “+ + +”. Moreover, in series [6], the “effect on normal diploid fibroblasts (in words)” value was “no effect”. For the same compound, in series [6] (setting [10]), the “Cell Viability Normal Diploid Fibroblasts” value is reported as “+ + +”.
“PRGPEP [VIII, hexapeptide with arginine substituted by glutamic acid]”: the “toxicity … (in words)” value in [5] (5 mM) is “lacked cytotoxic activity”. Also, the “Cell Viability Human Bladder Cancer” value in [5] is listed as “+ + +”. Moreover, the “effect on normal diploid fibroblasts (in words)” value in series [6] was “no effect”. The “Cell Viability Normal Diploid Fibroblasts” value in series [6] (setting [10]) was “+ + +”.
“PRGPR [III, linear N'-capped synthetic peptide amide PRGPR]”: the “Cell Viability Human Bladder Cancer” value in series [5] is “- - -”. For the same compound, the “Cell Viability Normal Diploid Fibroblasts” value in series [6] (setting [10]) is on record as “+ + +”.
Take “PRRPGP [VI, linear end-capped hexapeptide PRRPGP, one arginine transposed]”: the “Cdk1 expression compared to Cdk4” value in series [4] is on record as “not PRRPGP”. Also, the “toxicity … (in words)” value in [5] (5 mM) was “markedly diminishes RT112 human bladder cancer cell killing”. Also, the “Cell Viability Human Bladder Cancer” value in series [5] is recorded as “+ + +”. Further, the “Cell Viability Normal Diploid Fibroblasts” value in [6] (setting [10]) is on record as “+ + +”.
For RGPR [V, shorter linear peptide RGPR], the “toxicity … (in words)” value in series [5] (5 mM) was “inactive”. The “Cell Viability Human Bladder Cancer” value in series [5] is “+ + +”. The “Cell Viability Normal Diploid Fibroblasts” value in series [6] (setting [10]) is on record as “+ + +”.
For the compound “RGPRP [IV, linear N'-capped synthetic pentapeptide amide RGPRP]”, the “toxicity … (in words)” value in series [5] (5 mM) is “greater selective toxicity”. In addition, in [6], the “effect on normal diploid fibroblasts (in words)” value is listed as “sparing normal diploid fibroblasts”. For the same compound, in [6] (setting [10]), the “Cell Viability Normal Diploid Fibroblasts” value is given as “+ + +”.
